# In patent US20130029334A1, “mRNA As Biomarkers For Liver Injury or Other Liver Perturbations” (priority 2010, published 2013):
# “And” between values parts separate entries of the source, which are not always exact repeats. Identical values can stand only once. Like-named read-outs stand apart in the source and are kept apart here.
# Experiments:
# rats [1] = settings: 48 hours
# Protocol: (§1) In this example, to model a drug causing liver perturbation (such as injury or hepatotoxicity), hepatotoxicant D-galactosamine (“DGAL”) was administered to rats. Male Sprague-Dawley rats were administered DGAL at 0 (sterile PBS) or 1000 mg/kg intraperitoneally, and sacrificed after 24 hours. […] Blood was harvested from DGAL-treated rats, and serum liver enzymes were measured using a standard laboratory assay.
# (§2) In this example, to exemplify a drug causing liver injury, drug acetaminophen (“APAP”) was administered to rats. Rats were administered APAP at 0, 100, 700, and 1400 mg/kg by gavage, and then sacrificed at 6, 24 or 48 hours after treatment. Hematoxylin and eosin-stained liver sections were examined by an accredited pathologist and scored for incidence and severity of hepatocellular necrosis.
# rats [2] = assay: Whole genome microarray analysis of plasma mRNA of treated rats; assay type: in vivo, rat; settings: 24 h; for number of mRNA biomarkers differentially expressed: 2-fold change, false discovery rate <0.05
# Description: In this example, illustrated is whole genome microarray analysis, which can be used to reveal treatment-specific transcriptomic profiles following liver injury or liver enzyme induction. […] Total RNA was isolated from the 14,000×g plasma pellet from rats treated with DGAL or APAP. […] Next, this fragmented product was labeled via enzymatic attachment of a biotin-labeled nucleotide that contained an indicator molecule comprising a fluorophore. After this labeled cDNA was hybridized and bound to the oligonucleotides on the microarray, any unbound cDNA was washed away and the microarrays were scanned. During this process, the microarray chips were scanned at a wavelength that allowed the indicator molecule to fluoresce (the excitation wavelength). The level of mRNA biomarker was determined from the level of fluorescence (e.g., correlating to the amount of labeled cDNA hybridized to the microarray) using standard techniques. Data on measurement of mRNA biomarkers (which also may be representative of gene expression induced as a result of liver perturbation) was preprocessed using GC-RMA and log2-transformed. The probe-level microarray data was checked for quality using various graphical and statistical means. Arrays showing low quality RNA or poor amplification were excluded from the analysis. To evaluate the ability of whole genome microarray analysis using plasma mRNA to discriminate between DGAL- and APAP-induced liver perturbation, a one-way analysis of variance and individual t-tests were then used to identify which individual mRNA biomarkers were statistically altered between the two treatment groups. A false-discovery rate correction was used for multiple comparisons. Analysis software was utilized to identify networks of interacting genes and other functional groups using gene lists generated.
# rats [3] = assay: Alb, Fgb, Hp mRNA expression in liver of treated rats (FIG. 2); assay type: in vivo, rat
# Protocol: FIG. 2 is a graph showing a log2 fold change in expression of Alb, Fgb, and Hp mRNA (detected as cDNA), respectively, in liver of rats treated with DGAL, or with acetaminophen (APAP), as compared to references values determined from rats not treated with DGAL (Control; solid black boxes) or APAP (Control; solid black boxes), respectively.
# At 48 hours, Hp mRNA levels were increased by 9, 54 and 86 fold over controls, respectively, at 100, 700, and 1400 mg/kg APAP; while Alb mRNA levels were increased by 13 and 31 fold at 700 and 1400 mg/kg.
# rats [4] = settings: rat, in vivo
# Protocol: as §1, §2
# Using methods described previously herein, liver enzymes including serum ALT and AST levels, and plasma mRNA levels, were also assessed to determine hepatotoxicity following APAP administration.
# Rats were treated with skeletal muscle toxicant bupivacaine (“BPVC”). For BPVC treatment, rats were administered 0.5 mL sterile saline or 0.5% w/v sterile solution of BPVC in saline once into both the right and left tibialis anterior muscles. […] To compare the specificity of circulating liver mRNAs with AST and ALT following skeletal muscle injury, rats were treated with BPVC, and then serum enzymes and circulating liver mRNAs were measured 24 hours after treatment.
# [5] = rat plasma, APAP 1400 mg/kg gavage
# [6] = APAP 1400 mg/kg treatment group
compound,measurement,setting,value
"CC(=O)Nc1ccc(O)cc1 [APAP, acetaminophen]",mortality,rats [1]; APAP 700 mg/kg gavage,one rat
same,mortality,rats [1]; APAP 1400 mg/kg gavage,one rat
same,number of mRNA biomarkers differentially expressed,rats [2]; APAP 1400 mg/kg gavage,1374
same,CYP450-related mRNAs in plasma,rats [2]; APAP 1400 mg/kg gavage,No increases
same,Fold increase Adam10,rats [2]; [5],14 fold
same,Fold increase Akt3,rats [2]; [5],4 fold
same,Fold increase Angpt1,rats [2]; [5],23 fold
same,Fold increase Arhgef12,rats [2]; [5],Arhgef12 (12); F2RI2 (12) fold
same,Fold increase B2M,rats [2]; [5],B2M (3) fold
same,Fold increase Calr,rats [2]; [5],3 fold
same,Fold increase Dapp1,rats [2]; [5],5 fold
same,Fold increase F2RI2,rats [2]; [5],Arhgef12 (12); F2RI2 (12) fold
same,Fold increase Fcgr2b,rats [2]; [5],7 fold
same,Fold increase Grin1,rats [2]; [5],10 fold
same,Fold increase Gsk3b,rats [2]; [5],Gsk3b (6) fold
same,Fold increase Hla-C,rats [2]; [5],23 fold
same,Fold increase Hla-E1,rats [2]; [5],9 fold
same,Fold increase Itga6,rats [2]; [5],19 fold
same,Fold increase Itgav,rats [2]; [5],Itgav (12) fold
same,Fold increase Itgb1,rats [2]; [5],17 fold
same,Fold increase Jak2,rats [2]; [5],13 fold
same,Fold increase Lyn,rats [2]; [5],10 fold
same,Fold increase Mapk1,rats [2]; [5],15 fold
same,Fold increase Nck2,rats [2]; [5],8 fold
same,Fold increase Pdia3,rats [2]; [5],Canx (5); Pdia3 (5); fold
same,Fold increase Prkc,rats [2]; [5],4 fold
same,Fold increase Prkcq,rats [2]; [5],3 fold
same,Fold increase Psap,rats [2]; [5],20 fold
same,Fold increase Rac1,rats [2]; [5],4 fold
same,Fold-Change Alb mRNA (first listing),rats [2]; [5],102.57 fold and 103 fold
same,Fold-Change Alb mRNA (second listing),rats [2]; [5],11.26 fold
same,Fold-Change Arhgap28 mRNA,rats [2]; [5],23.18 fold
same,Fold-Change C2cd21 mRNA,rats [2]; [5],21.52 fold
same,Fold-Change Ccl2 mRNA,rats [2]; [5],79.83 fold
same,Fold-Change Ceacam1 mRNA,rats [2]; [5],28.57 fold
same,Fold-Change Cxcl2 mRNA,rats [2]; [5],68.29 fold
same,Fold-Change Cxcl7 mRNA,rats [2]; [5],37.96 fold
same,Fold-Change Cxcl12 mRNA,rats [2]; [5],30.90 fold and 31 fold
same,Fold-Change Fam183b mRNA,rats [2]; [5],26.31 fold
same,Fold-Change G1p2 mRNA,rats [2]; [5],17.16 fold
same,Fold-Change Galnt1 mRNA,rats [2]; [5],22.06 fold
same,Fold-Change Gpnmb mRNA,rats [2]; [5],6.10 fold
same,Fold-Change Hspa1a mRNA,rats [2]; [5],40.60 fold
same,Fold-Change Hspa1b mRNA,rats [2]; [5],21.07 fold
same,Fold-Change Kcnab1 mRNA,rats [2]; [5],24.65 fold
same,Fold-Change LOC259245 mRNA,rats [2]; [5],4.94 fold
same,Fold-Change Lta4h mRNA,rats [2]; [5],6.27 fold
same,Fold-Change Mt2a mRNA,rats [2]; [5],16.40 fold
same,Fold-Change Pde5a mRNA,rats [2]; [5],24.18 fold
same,Fold-Change Pgrmc1 mRNA,rats [2]; [5],2.82 fold
same,Fold-Change Prdx5 mRNA,rats [2]; [5],2.57 fold
same,Fold-Change Ptprj mRNA,rats [2]; [5],61.43 fold
same,Fold-Change RT1-A2 mRNA,rats [2]; [5],22.73 fold
same,Fold-Change Rbp4 mRNA,rats [2]; [5],20.44 fold
same,Fold-Change Serpina1 mRNA,rats [2]; [5],24.15 fold
same,Fold-Change Slc24a3 mRNA (rat SEQ ID NO: 47),rats [2]; [5],25.57 fold
same,Fold-Change Slc24a3 mRNA (rat SEQ ID NO: 57),rats [2]; [5],22.11 fold
same,Fold-Change Srxn1 mRNA,rats [2]; [5],21.98 fold
same,Fold-Change St3gal2 mRNA,rats [2]; [5],21.94 fold
same,Fold-Change Tuba4a mRNA,rats [2]; [5],4.21 fold
same,Fold-Change Vcl mRNA,rats [2]; [5],70.40 fold and 70 fold
same,Fold-Change Xpo5 mRNA,rats [2]; [5],30.54 fold
same,expression of Alb mRNA in liver,rats [3]; [6],significant decrease
same,expression of Hp mRNA in liver,rats [3]; [6],significant decrease
"CCCCN1CCCCC1C(=O)Nc1c(C)cccc1C (stereo not shown) [BPVC, bupivacaine]",ALT,rats [4],73.70 ± 4.69 U/L
same,AST,rats [4],368.25 ± 31.81 U/L
same,elevation in serum ALT,rats [4],1.96 ×
same,elevation in serum AST,rats [4],3.58 ×
"N[C@H]1C(O)O[C@H](CO)[C@H](O)[C@@H]1O (stereo partly drawn) [DGAL, D-(+)-galactosamine]",number of mRNA biomarkers differentially expressed,rats [2]; DGAL 1000 mg/kg ip,804
same,Fold increase Aadat,"rats [2]; rat plasma, DGAL 1000 mg/kg ip",3 fold
same,Fold increase Apoc2,"rats [2]; rat plasma, DGAL 1000 mg/kg ip",23 fold
same,Fold increase C9,"rats [2]; rat plasma, DGAL 1000 mg/kg ip",10 fold
same,Fold increase Cf1h,"rats [2]; rat plasma, DGAL 1000 mg/kg ip",14 fold
same,Fold increase Cfb,"rats [2]; rat plasma, DGAL 1000 mg/kg ip",13 fold
same,Fold increase Cfi,"rats [2]; rat plasma, DGAL 1000 mg/kg ip",25 fold
same,Fold increase Cyp2a2,"rats [2]; rat plasma, DGAL 1000 mg/kg ip",15 fold
same,Fold increase Cyp2c9,"rats [2]; rat plasma, DGAL 1000 mg/kg ip",32 fold
same,Fold increase Cyp3a2,"rats [2]; rat plasma, DGAL 1000 mg/kg ip",26 fold
same,Fold increase Cyp3a4,"rats [2]; rat plasma, DGAL 1000 mg/kg ip",26 fold
same,Fold increase Cyp4f12,"rats [2]; rat plasma, DGAL 1000 mg/kg ip",13 fold
same,Fold increase F2,"rats [2]; rat plasma, DGAL 1000 mg/kg ip",14 fold
same,Fold increase Fga,"rats [2]; rat plasma, DGAL 1000 mg/kg ip",28 fold
same,Fold increase Mettl7b,"rats [2]; rat plasma, DGAL 1000 mg/kg ip",Mettl7b (9) fold
same,Fold increase Pla2g4a,"rats [2]; rat plasma, DGAL 1000 mg/kg ip",7 fold
same,Fold increase Plg,"rats [2]; rat plasma, DGAL 1000 mg/kg ip",17 fold
same,Fold increase Serping1,"rats [2]; rat plasma, DGAL 1000 mg/kg ip",7 fold
same,Fold-Change Alb mRNA (first listing),"rats [2]; rat plasma, DGAL 1000 mg/kg ip",83.32 fold and 83 fold
same,Fold-Change Alb mRNA (second listing),"rats [2]; rat plasma, DGAL 1000 mg/kg ip",77.08 fold
same,Fold-Change Ambp mRNA,"rats [2]; rat plasma, DGAL 1000 mg/kg ip",111.24 fold and 111 fold
same,Fold-Change Apoa1 mRNA,"rats [2]; rat plasma, DGAL 1000 mg/kg ip",53.34 fold and 53 fold
same,Fold-Change Apoc1 mRNA,"rats [2]; rat plasma, DGAL 1000 mg/kg ip",35.57 fold and 36 fold
same,Fold-Change Apoc3 mRNA,"rats [2]; rat plasma, DGAL 1000 mg/kg ip",58.09 fold
same,Fold-Change Apoh mRNA,"rats [2]; rat plasma, DGAL 1000 mg/kg ip",39.84 fold
same,Fold-Change Ccl2 mRNA,"rats [2]; rat plasma, DGAL 1000 mg/kg ip",25.35 fold
same,Fold-Change Cyp2c7 mRNA,"rats [2]; rat plasma, DGAL 1000 mg/kg ip",102.92 fold and 103 fold
same,Fold-Change Cyp2c13 mRNA,"rats [2]; rat plasma, DGAL 1000 mg/kg ip",40.38 fold and 40 fold
same,Fold-Change Fgg mRNA,"rats [2]; rat plasma, DGAL 1000 mg/kg ip",65.02 fold and 65 fold
same,Fold-Change Fgl1 mRNA,"rats [2]; rat plasma, DGAL 1000 mg/kg ip",52.04 fold
same,Fold-Change G1p2 mRNA,"rats [2]; rat plasma, DGAL 1000 mg/kg ip",5.78 fold
same,Fold-Change Gc mRNA,"rats [2]; rat plasma, DGAL 1000 mg/kg ip",42.82 fold
same,Fold-Change Gpnmb mRNA,"rats [2]; rat plasma, DGAL 1000 mg/kg ip",4.04 fold
same,Fold-Change Itih1 mRNA,"rats [2]; rat plasma, DGAL 1000 mg/kg ip",52.97 fold
same,Fold-Change Itih3 mRNA,"rats [2]; rat plasma, DGAL 1000 mg/kg ip",40.88 fold
same,Fold-Change Kng1 mRNA,"rats [2]; rat plasma, DGAL 1000 mg/kg ip",45.12 fold
same,Fold-Change LOC259245 mRNA,"rats [2]; rat plasma, DGAL 1000 mg/kg ip",11.52 fold
same,Fold-Change Lta4h mRNA,"rats [2]; rat plasma, DGAL 1000 mg/kg ip",3.40 fold
same,Fold-Change Mt2a mRNA,"rats [2]; rat plasma, DGAL 1000 mg/kg ip",18.20 fold
same,Fold-Change Mug1 mRNA,"rats [2]; rat plasma, DGAL 1000 mg/kg ip",108.00 fold
same,Fold-Change Obp3 mRNA,"rats [2]; rat plasma, DGAL 1000 mg/kg ip",96.26 fold
same,Fold-Change Pgrmc1 mRNA,"rats [2]; rat plasma, DGAL 1000 mg/kg ip",3.12 fold
same,Fold-Change Prdx5 mRNA,"rats [2]; rat plasma, DGAL 1000 mg/kg ip",2.03 fold
same,Fold-Change Rbp4 mRNA,"rats [2]; rat plasma, DGAL 1000 mg/kg ip",36.82 fold
same,Fold-Change Serpina1 mRNA,"rats [2]; rat plasma, DGAL 1000 mg/kg ip",12.61 fold
same,Fold-Change Serpina3k mRNA,"rats [2]; rat plasma, DGAL 1000 mg/kg ip",36.42 fold
same,Fold-Change Spp2 mRNA,"rats [2]; rat plasma, DGAL 1000 mg/kg ip",34.78 fold
same,Fold-Change Ttr mRNA,"rats [2]; rat plasma, DGAL 1000 mg/kg ip",60.61 fold and 61 fold
same,Fold-Change Tuba4a mRNA,"rats [2]; rat plasma, DGAL 1000 mg/kg ip",2.24 fold
same,Fold-Change Vtn mRNA,"rats [2]; rat plasma, DGAL 1000 mg/kg ip",57.99 fold
same,expression of Alb mRNA in liver,rats [3]; DGAL-treated rats,small but statistically insignificant decrease
same,expression of Fgb mRNA in liver,rats [3]; DGAL-treated rats,significant decrease
same,expression of Hp mRNA in liver,rats [3]; DGAL-treated rats,significant decrease
